Each structure is given as a SMILES string.

For this experiment, the target named is T1, JAK3 (Homo sapiens, UniProt P52333).
T1 construct: endogenous in cells; host or cells: mixed Molt4/Ramos lysate (1:2)
T1 sequence (P52333 1-1124): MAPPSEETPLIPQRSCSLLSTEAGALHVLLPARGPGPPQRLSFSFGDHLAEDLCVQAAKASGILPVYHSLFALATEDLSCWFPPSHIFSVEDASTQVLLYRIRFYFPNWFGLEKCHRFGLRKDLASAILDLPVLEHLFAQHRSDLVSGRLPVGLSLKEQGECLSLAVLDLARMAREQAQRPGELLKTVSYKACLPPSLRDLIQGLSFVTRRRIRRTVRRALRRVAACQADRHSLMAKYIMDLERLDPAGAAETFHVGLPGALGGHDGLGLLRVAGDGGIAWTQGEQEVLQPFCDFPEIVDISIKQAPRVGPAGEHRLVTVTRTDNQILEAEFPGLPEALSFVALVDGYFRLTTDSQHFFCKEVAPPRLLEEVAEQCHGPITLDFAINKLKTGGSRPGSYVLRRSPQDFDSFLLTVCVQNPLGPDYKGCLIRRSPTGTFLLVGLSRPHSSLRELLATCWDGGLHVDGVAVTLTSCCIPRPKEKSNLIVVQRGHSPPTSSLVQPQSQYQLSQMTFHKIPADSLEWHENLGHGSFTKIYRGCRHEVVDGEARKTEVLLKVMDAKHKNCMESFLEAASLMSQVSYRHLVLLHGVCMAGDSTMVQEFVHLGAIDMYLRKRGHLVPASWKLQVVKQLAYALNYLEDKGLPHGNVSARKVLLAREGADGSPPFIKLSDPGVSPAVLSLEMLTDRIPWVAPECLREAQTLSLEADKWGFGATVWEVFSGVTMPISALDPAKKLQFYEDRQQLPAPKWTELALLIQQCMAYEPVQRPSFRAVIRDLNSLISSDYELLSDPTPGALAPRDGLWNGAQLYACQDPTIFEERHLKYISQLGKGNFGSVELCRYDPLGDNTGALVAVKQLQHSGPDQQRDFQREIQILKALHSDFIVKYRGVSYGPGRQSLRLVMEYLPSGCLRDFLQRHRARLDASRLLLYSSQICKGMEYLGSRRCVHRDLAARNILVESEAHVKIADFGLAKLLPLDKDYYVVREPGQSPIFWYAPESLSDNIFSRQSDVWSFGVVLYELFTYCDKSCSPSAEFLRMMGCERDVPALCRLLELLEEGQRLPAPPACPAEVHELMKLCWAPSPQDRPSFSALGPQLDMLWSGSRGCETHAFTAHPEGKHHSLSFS
The experiment can be described thus: Kinobeads assay, JAK3. It counts as binding. The note with it: mixed Molt4/Ramos lysate, read-out: Inhibition values (IC50) JAK3. In short, it runs like this: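 Competition binding in mixed Molt4/Ramos cell lysate (1:2, 10 mg/mL protein) with Kinobeads carrying immobilized aminopyrido-pyrimidine ligand, 3 h in cold room; 9-step 1:3 compound dilution series from 5 mM DMSO stock. Bead-bound JAK2/JAK3 eluted and quantified by antibody dot blot with infrared detection; IC50 from dose-response curves.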
On to `O=C1CC(Cn2cc(Nc3ncc4cnn(Cc5cc(F)cc(N6CCOCC6=O)c5)c4n3)cn2)CN1` (centres unmarked) [Example 105, 4-(3-fluoro-5-((6-((1-((5-oxopyrrolidin-3-yl)methyl)-1H-pyrazol-4-yl)amino)-1H-pyrazolo[3,4-d]pyrimidin-1-yl)methyl)phenyl)morpholin-3-one], for which the IC50 is less than 100 nM.
The same measure for `O=C1COCCN1c1cc(F)cc(Cn2ncc3cnc(Nc4cnn(CCS(=O)(=O)NC5CC5)c4)nc32)c1` [Example 106, N-cyclopropyl-2-(4-((1-(3-fluoro-5-(3-oxomorpholino)benzyl)-1H-pyrazolo[3,4-d]pyrimidin-6-yl)amino)-1H-pyrazol-1-yl)ethanesulfonamide]: less than 100 nM; for `N#CCCn1cc(Nc2ncc3cnn(Cc4cc(F)cc(N5CCOCC5=O)c4)c3n2)cn1` [Example 107, 3-(4-((1-(3-fluoro-5-(3-oxomorpholino)benzyl)-1H-pyrazolo[3,4-d]pyrimidin-6-yl)amino)-1H-pyrazol-1-yl)propanenitrile]: less than 100 nM.
As to `Cn1cc(Nc2ncc3cnn(Cc4cccc(N5CCC(=O)CC5)c4)c3n2)cn1` [Example 108, 1-(3-((6-((1-methyl-1H-pyrazol-4-yl)amino)-1H-pyrazolo[3,4-d]pyrimidin-1-yl)methyl)phenyl)piperidin-4-one], the IC50 was less than 100 nM.
Then `O=C(Cn1cc(Nc2ncc3cnn(Cc4cc(F)cc(N5CCOCC5=O)c4)c3n2)cn1)N1CCNCC1` [Example 109, 4-(3-fluoro-5-((6-((1-(2-oxo-2-(piperazin-1-yl)ethyl)-1H-pyrazol-4-yl)amino)-1H-pyrazolo[3,4-d]pyrimidin-1-yl)methyl)phenyl)morpholin-3-one], with less than 100 nM.
For the compound `Cn1cc(Nc2ncc3cnn(Cc4c(F)c(F)cc(C(=O)N5CCOCC5)c4F)c3n2)cn1` [Example 110, morpholino(2,4,5-trifluoro-3-((6-((1-methyl-1H-pyrazol-4-yl)amino)-1H-pyrazolo[3,4-d]pyrimidin-1-yl)methyl)phenyl)methanone], the IC50 is less than 100 nM.
Consider `O=C(c1cc(F)c(F)c(Cn2ncc3cnc(Nc4cnn(CCO)c4)nc32)c1F)N1CCOCC1` [Example 111, morpholino(2,4,5-trifluoro-3-((6-((1-(2-hydroxyethyl)-1H-pyrazol-4-yl)amino)-1H-pyrazolo[3,4-d]pyrimidin-1-yl)methyl)phenyl)methanone], for which the IC50 is less than 100 nM.
Then `C[C@H]1COCCN1c1cccc(Cn2ncc3cnc(Nc4cnn(C)c4)nc32)c1` [Example 112, (S)-N-(1-methyl-1H-pyrazol-4-yl)-1-(3-(3-methylmorpholino)benzyl)-1H-pyrazolo[3,4-d]pyrimidin-6-amine], with less than 100 nM.
Regarding `C[C@@H]1COCCN1c1cccc(Cn2ncc3cnc(Nc4cnn(C)c4)nc32)c1` [Example 113, (R)-N-(1-methyl-1H-pyrazol-4-yl)-1-(3-(3-methylmorpholino)benzyl)-1H-pyrazolo[3,4-d]pyrimidin-6-amine], the IC50 was less than 100 nM.
In the case of `Cn1cc(Nc2ncc3cnn(Cc4cccc(NC5COC5)c4)c3n2)cn1` [Example 114, N-(1-methyl-1H-pyrazol-4-yl)-1-(3-(oxetan-3-ylamino)benzyl)-1H-pyrazolo[3,4-d]pyrimidin-6-amine], the IC50 is less than 100 nM.
The same measure for `Cn1cc(Nc2ncc3cnn(Cc4cccc(-c5cnn(C)c5)c4)c3n2)cn1` [Example 115, N-(1-methyl-1H-pyrazol-4-yl)-1-(3-(1-methyl-1H-pyrazol-4-yl)benzyl)-1H-pyrazolo[3,4-d]pyrimidin-6-amine]: less than 100 nM.
Then `CCn1cc(-c2cccc(Cn3ncc4cnc(Nc5cnn(C)c5)nc43)c2)cn1` [Example 116, 1-(3-(1-ethyl-1H-pyrazol-4-yl)benzyl)-N-(1-methyl-1H-pyrazol-4-yl)-1H-pyrazolo[3,4-d]pyrimidin-6-amine], with less than 100 nM.
For `CC(C)n1cc(-c2cccc(Cn3ncc4cnc(Nc5cnn(C)c5)nc43)c2)cn1` [Example 117, 1-(3-(1-isopropyl-1H-pyrazol-4-yl)benzyl)-N-(1-methyl-1H-pyrazol-4-yl)-1H-pyrazolo[3,4-d]pyrimidin-6-amine], the IC50 was 100 to 1000 nM.
Regarding `Cn1cc(Nc2ncc3cnn(Cc4cccc(-c5cn[nH]c5)c4)c3n2)cn1` [Example 118, 1-(3-(1H-pyrazol-4-yl)benzyl)-N-(1-methyl-1H-pyrazol-4-yl)-1H-pyrazolo[3,4-d]pyrimidin-6-amine], the IC50 was less than 100 nM.
On to `CCCn1cc(-c2cccc(Cn3ncc4cnc(Nc5cnn(C)c5)nc43)c2)cn1` [Example 119, N-(1-methyl-1H-pyrazol-4-yl)-1-(3-(1-propyl-1H-pyrazol-4-yl)benzyl)-1H-pyrazolo[3,4-d]pyrimidin-6-amine], for which the IC50 was less than 100 nM.
Then `Cn1cc(Nc2ncc3cnn(Cc4cccc(-c5cnn(CC(N)=O)c5)c4)c3n2)cn1` [Example 120, 2-(4-(3-((6-((1-methyl-1H-pyrazol-4-yl)amino)-1H-pyrazolo[3,4-d]pyrimidin-1-yl)methyl)phenyl)-1H-pyrazol-1-yl)acetamide], with less than 100 nM; and `Cn1cc(Nc2ncc3cnn(Cc4cccc(-c5cnn(CCO)c5)c4)c3n2)cn1` [Example 121, 2-(4-(3-((6-((1-methyl-1H-pyrazol-4-yl)amino)-1H-pyrazolo[3,4-d]pyrimidin-1-yl)methyl)phenyl)-1H-pyrazol-1-yl)ethanol], with less than 100 nM.
Then `Cn1cc(-c2cccc(Cn3ncc4cnc(Nc5cnn(CCO)c5)nc43)c2)cn1` [Example 122, 2-(4-((1-(3-(1-methyl-1H-pyrazol-4-yl)benzyl)-1H-pyrazolo[3,4-d]pyrimidin-6-yl)amino)-1H-pyrazol-1-yl)ethanol], with less than 100 nM; and `Cn1cc(Nc2ncc3cnn(Cc4cccc(-c5cnn(C)c5)c4F)c3n2)cn1` [Example 123, 1-(2-fluoro-3-(1-methyl-1H-pyrazol-4-yl)benzyl)-N-(1-methyl-1H-pyrazol-4-yl)-1H-pyrazolo[3,4-d]pyrimidin-6-amine], with less than 100 nM; and `Cn1cc(-c2cccc(Cn3ncc4cnc(Nc5cnn(CCO)c5)nc43)c2F)cn1` [Example 124, 2-(4-((1-(2-fluoro-3-(1-methyl-1H-pyrazol-4-yl)benzyl)-1H-pyrazolo[3,4-d]pyrimidin-6-yl)amino)-1H-pyrazol-1-yl)ethanol], with less than 100 nM.
Regarding `Cn1cc(Nc2ncc3cnn(Cc4cc(F)cc(-c5cnn(C)c5)c4)c3n2)cn1` [Example 125, 1-(3-fluoro-5-(1-methyl-1H-pyrazol-4-yl)benzyl)-N-(1-methyl-1H-pyrazol-4-yl)-1H-pyrazolo[3,4-d]pyrimidin-6-amine], the IC50 was less than 100 nM.
For `Cn1cc(Nc2ncc3cnn(Cc4cc(-c5cnn(C)c5)cc(F)c4F)c3n2)cn1` [Example 126, 1-(2,3-difluoro-5-(1-methyl-1H-pyrazol-4-yl)benzyl)-N-(1-methyl-1H-pyrazol-4-yl)-1H-pyrazolo[3,4-d]pyrimidin-6-amine], the 50% inhibitory concentration (IC50) is less than 100 nM.
Take `Cn1cc(-c2cc(F)c(F)c(Cn3ncc4cnc(Nc5cnn(CCO)c5)nc43)c2)cn1` [Example 127, 2-(4-((1-(2,3-difluoro-5-(1-methyl-1H-pyrazol-4-yl)benzyl)-1H-pyrazolo[3,4-d]pyrimidin-6-yl)amino)-1H-pyrazol-1-yl)ethanol]: the IC50 is less than 100 nM.

Source of the values: patent US9040545B2, “Heterocyclyl pyrazolopyrimidine analogues as selective JAK inhibitors” (Cellzome Limited, priority 2010, dated 2015).
